In PubChem BioAssay (NCI):
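Results reflect a 48-hour exposure of cells in 96-well plates to compound at five concentrations. TGI: concentration producing complete growth inhibition.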

How the values were obtained:
Test in all cases: NCI tumour cell line growth inhibition, 48 h
A498 renal = tested on: A498 renal
CCRF-CEM leukemia = tested on: CCRF-CEM leukemia
HS 578T breast = tested on: HS 578T breast
K-562 leukemia = tested on: K-562 leukemia
NCI-H226 lung = tested on: NCI-H226 lung
OVCAR-5 ovarian = tested on: OVCAR-5 ovarian
OVCAR-8 ovarian = tested on: OVCAR-8 ovarian
PC-3 prostate = tested on: PC-3 prostate
RPMI-8226 leukemia = tested on: RPMI-8226 leukemia
SNB-75 CNS = tested on: SNB-75 CNS

Measured: TGI

CC(=O)c1cc2ccccc2oc1=O
> 100 µM: A498 renal | CCRF-CEM leukemia | HS 578T breast | K-562 leukemia | NCI-H226 lung | OVCAR-5 ovarian | OVCAR-8 ovarian | PC-3 prostate | RPMI-8226 leukemia | SNB-75 CNS

O=C1CC(c2ccccc2)n2cccc21 (stereo not given)
> 100 µM: A498 renal | CCRF-CEM leukemia | HS 578T breast | K-562 leukemia | NCI-H226 lung | OVCAR-5 ovarian | OVCAR-8 ovarian | PC-3 prostate | RPMI-8226 leukemia | SNB-75 CNS
